Data reported in patent US20160304957A1, “TREATMENT AND MODULATION OF GENE EXPRESSION AND SKIN AGING” (DSM NUTRITIONAL PRODUCTS LTD., priority 2006, published 2016).

Columns and labels:
integrinα6 = assay: QRT-PCR confirmation of gene regulation in HaCaT cells; format: cell-based, human; conditions: β-carotene, unirradiated cells
Experimental: FIGS. 9A-9C show β-carotene-induced inhibition of integrinα6 transcription in irradiated and unirradiated HaCaT cells (FIG. 9A) and enhancement of UVA-induced GADD34 (FIG. 9B) and GADD153 transcription (FIG. 9C). Cells were supplemented with β-carotene for 2 days prior to UVA irradiation (270 kJ/m^2) either in normal PBS or D2O-PBS. Gene expression 5 hours after irradiation was determined by quantitative real time polymerase chain reaction. (“QRT-PCR”). Values are geometric mean±standard error of three experiments.
Key gene regulation was confirmed in three independent cell irradiation experiments using TaqMan® QRT-PCR as described. In these experiments, cells were pretreated with 0.5, 1.5, or 3 μM β-carotene, to analyze for dose-dependent β-carotene effects. In addition, cells were irradiated either in D2O-containing PBS or in H2O-containing PBS, to analyze for the ^1O2 inducibility of genes.

HaCaT cells = assay: Depletion of cellular β-carotene content by UVA irradiation, HPLC; format: in vitro ADME, human; conditions: 270 kJ/m^2 UVA
Experimental: (§1) On day 3 of the experiment, cells were washed six times with Ca/Mg-free PBS containing 2% BSA, and then irradiated with light with a Hönle sun lamp Sol 500 (Dr. Hönle, Plannegg, Germany) at a dose of 270 kJ/m^2 in Ca/Mg-free PBS (2 hour exposure time at […]). The experimental schedule was chosen because the cells had optimal UVA sensitivity after 48 hours in culture. […] Confluent cultures were much less sensitive to irradiation.

MMP-1 = assay: ELISA of MMP-1 release into cell culture supernatant of HaCaT cells; format: cell-based, human
Experimental: HaCaT cells were supplemented with 0.5, 1.5, or 3 μM β-carotene for 2 days prior to UVA (270 kJ/m^2) irradiation. MMP-1 and TIMP-1 secretion 24 hours after irradiation was analyzed by ELISA. Each condition was represented by three replicates in the experiment. Values are means±standard error.
Release of MMP-1, and TIMP-1 into cell culture supernatant was determined by ELISA at 24 hours after irradiation. MMP-1 and TIMP-1 release was measured using MMP-1 and TIMP ELISA from CALBIOCHEM (San Diego, Calif., USA). The ELISAs were performed according to the manufacturer's instructions.

RARβ = assay: QRT-PCR gene expression in HaCaT cells with or without UVA; format: cell-based, human
Experimental: (§2) HaCaT cells were obtained from Prof. Fusenig, German Cancer Research Centre, Heidelberg. […] The accuracy of cell counting was approximately 99%.
as §1
(§3) After irradiation, the cells were supplied with fresh β-carotene-containing serum-free medium and kept in the incubator at 37° C., 5% CO2 until harvest of the samples. In experiments in which the half-life of ^1O2 was prolonged by D2O to enhance its effect, PBS was prepared in D2O, instead of in H2O, as it was done for the standard conditions described above. Cells were washed twice in D2O-PBS prior to irradiation in D2O-PBS. After irradiation, cells were maintained with fresh β-carotene-containing serum-free medium. Sham controls were treated in an identical manner, by placing them under the solar simulator but shielded from light.
(§4) Total RNA was isolated by using Trizol™ (Invitrogen, Basel, Switzerland) according to the instructions of the manufacturer. Random-primed cDNA was synthesized using the Superscript pre-amplification system for first strand cDNA synthesis (Invitrogen).
(§5) cDNA corresponding to 10 ng total RNA was used as template to quantify the relative RNA expression of the genes of interest by TaqMan® real time PCR.
(§6) The PCR analyses were carried out in triplicate and in a multiplex setup, using 18S rRNA as a calibrator gene. The rRNA primers were used at a final concentration of 50 nM, the probe at 100 nM. For quantification of the genes of interest, the primer concentrations were optimized for sensitivity of template detection. […] PCR reactions were carried out for 40 cycles of 95° C. for 15 seconds and 60° C. for 1 minute in an ABI7700 (Applied Biosystems, Rotkreuz, Switzerland). Regulation of gene expression was calculated as described in user bulletin #2 provided by the manufacturer. A threshold cycle (“CT”) is the first PCR cycle in which an amplification signal is detected. Expression levels are given as δCT values. The δCT value describes the level of gene expression as the average PCR cycle, in which the gene of interest was detected first (CT value), subtracted by the CT value of the calibrator gene 18S rRNA (CTgene of interest−CTcalibrating gene), 18S rRNA served as a measure for the amount of template in the reaction. Routinely, 18S rRNA was detected between PCR cycle 12 and 13 (SE=standard error) A low δCT corresponds to a high mRNA level.
(§7) HaCaT cells were pretreated for 2 days with 0.5, 1.5 or 3 μM β-carotene. The cells were irradiated with UVA (270 kJ/m^2) either in D2O-containing PBS or in H2O-containing PBS, to analyze ^1O2 inducibility of genes. Gene expression 5 hours after UVA irradiation was analyzed by QRT-PCR. Values are geometric means±standard error from three independent experiments. Upregulations greater than 1.5-fold are labelled in bold black, downregulations below 0.66-fold are bold grey.

[1] = test system: β-Carotene-15,15′-oxygenase; assay: as above; format: cell-based, human
Experimental: as §2, §1, §3, §4, §5, §6, §7

[2] = test system: β-carotene-9′,10′-oxygenase; assay: as above; format: cell-based, human
Experimental: as §2, §1, §3, §4, §5, §6, §7

skin carcinogenesis = conditions: supplementation, rodents; cited from earlier work
[3] = β-carotene, UVA, D2O treatments

For `CC1=C(/C=C/C(C)=C/C=C/C(C)=C/C=C/C=C(C)/C=C/C=C(C)/C=C/C2=C(C)CCCC2(C)C)C(C)(C)CCC1` [β-carotene, All-E-β-carotene], the integrinα6 transcription (integrinα6) was “downregulation”, the “effect of UVA on cellular β-carotene content” value (HaCaT cells; 0.5 μM β-carotene 2 days) was “did not reduce” and the “cellular β-carotene stores remaining after UVA irradiation” value (HaCaT cells; 1.5 or 3 μM β-carotene 2 days) was “about 13%”. For the same compound, the “UVA-induced MMP-1 production, protein level” value (MMP-1; 24 hours after UVA) was “Downregulation”, the “basal MMP-1 protein expression” value (MMP-1; unirradiated cells) was “tended to reduce” and the “basal or UVA-regulated expression level of RARβ” value (RARβ) was “no significant effect”. The RARβ fold induction (RARβ; D2O, UVA/βC 0.5 μM) was 2.49 fold, the RARβ fold induction (RARβ; D2O, UVA/βC 1.5 μM) was 1.69 fold and the RARβ fold induction (RARβ; D2O, UVA/βC 3 μM) was 2.35 fold. The RARβ fold induction (RARβ; D2O, βC 0.5 μM) was 1.25 fold, the RARβ fold induction (RARβ; D2O, βC 1.5 μM) was 2.46 fold and the RARβ fold induction (RARβ; D2O, βC 3 μM) was 2.79 fold. It also gave an RARβ fold induction (RARβ; H2O, UVA/βC 0.5 μM) of 0.44 fold, an RARβ fold induction (RARβ; H2O, UVA/βC 1.5 μM) of 0.90 fold and an RARβ fold induction (RARβ; H2O, UVA/βC 3 μM) of 0.86 fold. For the same compound, the RARβ fold induction (RARβ; H2O, βC 0.5 μM) was 0.81 fold, the RARβ fold induction (RARβ; H2O, βC 1.5 μM) was 1.20 fold and the RARβ fold induction (RARβ; H2O, βC 3 μM) was 1.84 fold. The “RARβ induction, dose-dependent” value (RARβ; predominantly in unirradiated cells) was “non-significantly induced”, the “βC-15,15′-oxygenase fold induction” value ([1]; D2O, UVA/βC 0.5 μM) was 1.08 fold and the “βC-15,15′-oxygenase fold induction” value ([1]; D2O, UVA/βC 1.5 μM) was 0.90 fold. For the same compound, the “βC-15,15′-oxygenase fold induction” value ([1]; D2O, UVA/βC 3 μM) was 0.91 fold, the “βC-15,15′-oxygenase fold induction” value ([1]; D2O, βC 0.5 μM) was 1.19 fold and the “βC-15,15′-oxygenase fold induction” value ([1]; D2O, βC 1.5 μM) was 1.03 fold. For the same compound, the “βC-15,15′-oxygenase fold induction” value ([1]; D2O, βC 3 μM) was 0.43 fold, the “βC-15,15′-oxygenase fold induction” value ([1]; H2O, UVA/βC 0.5 μM) was 0.60 fold and the “βC-15,15′-oxygenase fold induction” value ([1]; H2O, UVA/βC 1.5 μM) was 0.84 fold. The “βC-15,15′-oxygenase fold induction” value ([1]; H2O, UVA/βC 3 μM) was 0.91 fold, the “βC-15,15′-oxygenase fold induction” value ([1]; H2O, βC 0.5 μM) was 1.09 fold and the “βC-15,15′-oxygenase fold induction” value ([1]; H2O, βC 1.5 μM) was 1.19 fold. The “βC-15,15′-oxygenase fold induction” value ([1]; H2O, βC 3 μM) was 1.08 fold, the “β-Carotene-15,15′-oxygenase RNA level” value [1, 3] was “not significantly influenced” and the “βC-9′,10′-oxygenase fold induction” value ([2]; D2O, UVA/βC 0.5 μM) was 1.43 fold. The “βC-9′,10′-oxygenase fold induction” value ([2]; D2O, UVA/βC 1.5 μM) was 2.30 fold, the “βC-9′,10′-oxygenase fold induction” value ([2]; D2O, UVA/βC 3 μM) was 2.19 fold and the “βC-9′,10′-oxygenase fold induction” value ([2]; D2O, βC 0.5 μM) was 0.93 fold. For the same compound, the “βC-9′,10′-oxygenase fold induction” value ([2]; D2O, βC 1.5 μM) was 1.19 fold, the “βC-9′,10′-oxygenase fold induction” value ([2]; D2O, βC 3 μM) was 1.11 fold and the “βC-9′,10′-oxygenase fold induction” value ([2]; H2O, UVA/βC 0.5 μM) was 0.75 fold. For the same compound, the “βC-9′,10′-oxygenase fold induction” value ([2]; H2O, UVA/βC 1.5 μM) was 0.70 fold, the “βC-9′,10′-oxygenase fold induction” value ([2]; H2O, UVA/βC 3 μM) was 0.99 fold and the “βC-9′,10′-oxygenase fold induction” value ([2]; H2O, βC 0.5 μM) was 0.90 fold. For the same compound, the “βC-9′,10′-oxygenase fold induction” value ([2]; H2O, βC 1.5 μM) was 0.85 fold, the “βC-9′,10′-oxygenase fold induction” value ([2]; H2O, βC 3 μM) was 0.76 fold and the “β-carotene-9′,10′-oxygenase RNA level” value [2, 3] was “not significantly influenced”. The skin carcinogenesis (skin carcinogenesis) was “reduced skin carcinogenesis”.
